Data from patent US10222368B2 (priority 2012, dated 2019).

Key:
mu opiate receptor (MOR) = target: T1, mu opiate receptor (MOR) (Rattus norvegicus, UniProt P33535); test: MOR agonist activity using [35S]GTPγS binding assay in striatal membranes; format: biochemical; conditions: for MOR agonist activity, [35S]GTPγS binding, FLNA-binding compound as agonist at 0.1 μM / MOR agonist activity, [35S]GTPγS binding, FLNA-binding compound as agonist at 1 μM: Series C-2; for MOR agonist activity, [35S]GTPγS binding, 1 μM + BFNA: 1 μM compound + 1 μM β-FNA (MOR antagonist)
T1 construct: from tissue; host or cells: striatal tissue (membrane preparation)
Procedure: To assess the mu opiate receptor (MOR) agonist activity of positive compounds from the FLNA screening, compounds were tested in a [^35S]GTPγS binding assay using striatal membranes. […] This assay measures a functional consequence of receptor occupancy at one of the earliest receptor-mediated events. The assay permits for traditional pharmacological parameters of potency, efficacy and antagonist affinity, with the advantage that agonist measures are not subjected to amplification or other modulation that may occur when analyzing parameters further downstream of the receptor.
Thus, striatal tissue was homogenized in 10 volumes of ice cold 25 mM HEPES buffer, pH 7.4, which contained 1 mM EGTA, 100 mM sucrose, 50 μg/ml leupeptin, 0.04 mM PMSF, 2 μg/ml soybean trypsin inhibitor and 0.2% 2-mercaptoethanol. The homogenates were centrifuged at 800×g for 5 minutes and the supernatants were centrifuged at 49,000×g for 20 minutes.
The resultant striatal membrane preparation (200 μg) was admixed and maintained (incubated) at 30° C. for 5 minutes in reaction buffer as above that additionally contained 1 mM MgCl2 and 0.5 nM [^35S]GTPγS (0.1 μCi/assay, PerkinElmer Life and Analytical Sciences) in a total volume of 250 μl and continued for 5 minutes in the absence or presence of 0.1-10 μM of an assayed compound of interest. The reaction was terminated by dilution with 750 μl of ice-cold reaction buffer that contained 20 mM MgCl2 and 1 mM EGTA and immediate centrifugation at 16,000×g for 5 minutes.
Normal rabbit serum (1 μl) was added to 1 ml of lysate and incubated at 25° C. for 30 minutes. Nonspecific immune complexes were removed by incubation with 25 μl of protein A/G-conjugated agarose beads at 25° C. for 30 minutes followed by centrifugation at 5,000×g at 4° C. for 5 minutes. The supernatant was divided and separately incubated at 25° C. for 30 minutes with antibodies raised against Gαo proteins (1:1,000 dilutions).
The immunocomplexes so formed were collected by incubation at 25° C. for 30 minutes with 40 μl of agarose-conjugated protein A/G beads and centrifugation at 5,000×g at 4° C. for 5 minutes. The pellet was washed and suspended in buffer containing 50 mM Tris-HCl, pH 8.0, and 1% NP-40. The radioactivity in the suspension was determined by liquid scintillation spectrometry.

[1] = target: FLNA pentapeptide VAKGL (SEQ ID NO: 1) (Homo sapiens, UniProt P21333); test: FITC-NLX-based FLNA screening assay; format: binding
[2] = 0.1 μM compound, striatal membranes
[3] = 1 μM compound, striatal membranes
[4] = 1 μM compound, relative to DAMGO

T1 sequence (P33535 whole entry): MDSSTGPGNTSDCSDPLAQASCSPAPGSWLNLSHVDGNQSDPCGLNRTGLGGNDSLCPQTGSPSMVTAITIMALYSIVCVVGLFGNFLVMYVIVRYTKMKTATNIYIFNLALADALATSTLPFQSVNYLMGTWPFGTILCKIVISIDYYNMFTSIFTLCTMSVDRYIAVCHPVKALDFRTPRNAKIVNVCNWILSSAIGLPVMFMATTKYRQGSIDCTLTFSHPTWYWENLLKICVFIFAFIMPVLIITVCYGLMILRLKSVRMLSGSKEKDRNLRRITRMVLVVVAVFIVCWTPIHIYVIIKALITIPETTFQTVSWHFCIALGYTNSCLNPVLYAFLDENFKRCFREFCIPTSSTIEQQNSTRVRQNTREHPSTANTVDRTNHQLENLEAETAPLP

SMILES | MOR agonist activity, [35S]GTPγS binding, FLNA-binding compound as agonist at 0.1 μM (mu opiate receptor (MOR); [2]) | MOR agonist activity, [35S]GTPγS binding, 1 μM + BFNA (mu opiate receptor (MOR); striatal membranes) | MOR agonist activity, [35S]GTPγS binding, FLNA-binding compound as agonist at 1 μM (mu opiate receptor (MOR); [3]) | further results
COc1ccc(S(=O)(=O)N2CCOC23CCCNC3)cc1 (stereo not drawn) [Compound C0145M-3] | 193.0% | 87.0% | 289.2% | 
CC(=O)c1ccc(S(=O)(=O)N2CCC3(CC2)OCCN3S(C)(=O)=O)cc1 [Compound C0056] | 98.6% | 86.3% | 193.4% | % DAMGO (0.1 μM) (mu opiate receptor (MOR); 0.1 μM compound, relative to DAMGO): 68.0%; % DAMGO (1 μM) (mu opiate receptor (MOR); [4]): 83.0%
COc1ccc(S(=O)(=O)N2CCC3(CC2)NCCC(=O)N3)cc1 [Compound C0142M] | 143.7% | 98.7% | 192.5% | 
CC(=O)c1ccc(S(=O)(=O)N2CC(CN(C)C)OC23CCNCC3)cc1 (stereo not drawn) [Compound C0118M] | 166.2% | 79.2% | 261.5% | 
CO[C@]12CC[C@@]3(C[C@@H]1C(C)(O)C(C)(C)C)[C@H]1Cc4ccc(O)c5c4[C@@]3(CCN1CC1CC1)[C@H]2O5 (stereo partly drawn) [Buprenorphine, reference compound] |  |  |  | Binding to the FLNA pentapeptide of SEQ ID NO: 1 (in words) [1]: bind well
C=CCN1CCC2(CC1)OCCN2S(=O)(=O)c1ccc(C(C)=O)cc1 [Compound C0096M] | 186.4% | 127.1% | 328.9% | % DAMGO (1 μM) (mu opiate receptor (MOR); [4]): 130.0%
COc1ccc(NC(=O)N2CCC3(CC2)NCCO3)cc1 [Compound C0151M-2] | 346.8% | 212.8% | 397.6% | 
CCCCN1CCC2(CC1)OCCN2S(=O)(=O)c1ccc(C(C)=O)cc1 [Compound C0101M] | 138.2% | 174.8% | 274.3% | 
CC(=O)c1ccc(S(=O)(=O)N2CCC3(CC2)NCCS3)cc1 [Compound C0060] | 166.5% | 143.9% | 218.9% | 
COc1cccc(CC(=O)CC2c3c(cc4c(c3OC)OCO4)CC[N+]2(C)C)c1OC.[I-] (stereo not drawn) [Compound B0038] |  |  |  | MOR agonist activity, [35S]GTPγS binding, at 1 μM compound (mu opiate receptor (MOR); Series B, 1 μM compound, [35S]GTPγS binding to Gαo, striatal membranes): 205.3%
CC(=O)c1ccc(S(=O)(=O)N2CCOC23CCN(CC2CC2)CC3)cc1 [Compound C0095M] | 189.1% | 107.7% | 224.6% | 
O=[N+]([O-])c1ccc(S(=O)(=O)N2CCC3(CC2)NCCS3)cc1 [Compound C0044] | 173.7% | 59.1% | 280.1% | 
CC(=O)c1ccc(S(=O)(=O)N2CC(=O)NC23CCNCC3)cc1 [Compound C0086M] | 206.8% | 152.3% | 265.3% | 
CC(=O)c1ccc(C(=O)N2CCC3(CC2)OCCN3S(=O)(=O)c2ccc(C(C)=O)cc2)cc1 [Compound C0052] |  |  |  | % DAMGO + BFNA (mu opiate receptor (MOR); Series C-1, 1 μM compound + BFNA relative to DAMGO + BFNA): 97.0%
